Reference: ChEMBL document CHEMBL1201862, “PubChem BioAssay data set” (2004)
Calls of active or inactive are those of the source.

Experiments:
[1] = target: T1, Apoptotic protease-activating factor 1 (Homo sapiens, UniProt O14727); assay type: functional
T1 sequence (O14727 whole entry): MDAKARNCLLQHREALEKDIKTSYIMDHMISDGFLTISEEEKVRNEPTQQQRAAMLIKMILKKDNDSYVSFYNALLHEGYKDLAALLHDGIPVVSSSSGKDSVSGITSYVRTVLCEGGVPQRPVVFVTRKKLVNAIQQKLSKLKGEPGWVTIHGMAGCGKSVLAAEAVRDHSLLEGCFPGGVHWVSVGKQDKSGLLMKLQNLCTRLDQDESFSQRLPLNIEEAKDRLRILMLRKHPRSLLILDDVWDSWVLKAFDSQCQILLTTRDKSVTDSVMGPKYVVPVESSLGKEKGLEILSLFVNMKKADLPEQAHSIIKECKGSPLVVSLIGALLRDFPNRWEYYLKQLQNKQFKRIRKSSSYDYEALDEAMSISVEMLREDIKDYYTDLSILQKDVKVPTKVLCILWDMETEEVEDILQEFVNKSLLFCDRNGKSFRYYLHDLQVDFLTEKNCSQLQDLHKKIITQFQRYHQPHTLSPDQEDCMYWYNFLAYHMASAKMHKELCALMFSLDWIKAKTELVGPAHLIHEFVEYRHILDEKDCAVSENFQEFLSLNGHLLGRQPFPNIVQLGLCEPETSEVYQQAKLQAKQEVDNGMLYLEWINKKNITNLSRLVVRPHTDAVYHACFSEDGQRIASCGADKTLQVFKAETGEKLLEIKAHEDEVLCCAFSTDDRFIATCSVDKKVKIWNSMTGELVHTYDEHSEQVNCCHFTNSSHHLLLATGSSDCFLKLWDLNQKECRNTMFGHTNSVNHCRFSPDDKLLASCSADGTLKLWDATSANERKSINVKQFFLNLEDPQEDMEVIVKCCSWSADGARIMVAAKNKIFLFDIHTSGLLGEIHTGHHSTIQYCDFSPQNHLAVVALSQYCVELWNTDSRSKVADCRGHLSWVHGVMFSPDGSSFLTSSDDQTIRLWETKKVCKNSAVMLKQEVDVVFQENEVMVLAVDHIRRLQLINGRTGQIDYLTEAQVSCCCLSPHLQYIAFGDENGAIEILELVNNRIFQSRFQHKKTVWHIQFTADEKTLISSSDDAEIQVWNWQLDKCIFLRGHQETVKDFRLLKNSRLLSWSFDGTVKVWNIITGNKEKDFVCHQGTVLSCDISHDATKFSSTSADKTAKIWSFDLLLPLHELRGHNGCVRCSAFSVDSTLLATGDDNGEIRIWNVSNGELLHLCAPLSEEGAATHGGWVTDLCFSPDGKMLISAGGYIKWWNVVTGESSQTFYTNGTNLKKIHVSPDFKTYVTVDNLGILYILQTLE

INS1 = assay: beta cell apoptosis inhibitors, cytokine rescue, dose response, luminescence, retest (AID 449756); assay type: functional, cell-based; conditions: Rattus norvegicus;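 note: cell death triggered by IL-1 beta plus TNF-alpha plus IFN-gamma mixture; protective hits raise ATP signal compared with cytokine alone wells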
[2] = target: Induced myeloid leukemia cell differentiation protein Mcl-1 (Homo sapiens, UniProt Q07820); assay type: functional
Induced myeloid leukemia cell differentiation protein Mcl-1, sequence (Q07820 whole entry): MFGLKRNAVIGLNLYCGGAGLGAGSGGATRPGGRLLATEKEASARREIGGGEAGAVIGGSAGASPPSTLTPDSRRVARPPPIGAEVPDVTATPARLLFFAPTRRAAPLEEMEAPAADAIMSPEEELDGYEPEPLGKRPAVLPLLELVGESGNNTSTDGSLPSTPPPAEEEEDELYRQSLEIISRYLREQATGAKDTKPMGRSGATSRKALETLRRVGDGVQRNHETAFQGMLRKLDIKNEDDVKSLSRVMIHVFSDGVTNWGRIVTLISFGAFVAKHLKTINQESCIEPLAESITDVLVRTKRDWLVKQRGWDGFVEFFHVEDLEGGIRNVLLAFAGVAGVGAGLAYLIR

[3] = inhibitors of firefly luciferase expression or activity, dose response, H4 neuroglioma cells, luminescence (AID 1990); assay type: functional, cell-based
[4] = Luminescence Cell-Based Dose Response HTS to Identify Inhibitors of 5'UTR Stem-Loop Driven Prion Protein mRNA Translation in H4 Neuroglioblastoma Cells. [Related pubchem assays: 1827 (Project Summary), 1813 (Primary HTS)]; assay type: functional
[5] = inhibitors of SNCA 5'UTR-driven reporter translation, confirmation, H4 neuroglioma cells, luminescence (AID 1988); assay type: functional, cell-based
[6] = inhibitors of intracellular T. cruzi replication, confirmation, NIH3T3 host cells, beta-gal luminescence (AID 2044); assay type: functional, cell-based;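 note: intracellular parasites grown in NIH/3T3 mouse fibroblasts as host cells; luminescent beta-galactosidase reporter signal from transgenic T. cruzi replicating inside host cells; inhibitors lower the luminescence signal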
[7] = cytotoxicity toward NIH3T3 fibroblasts, dose response, counter-screen, cell-based, ATP luminescence, mouse fibroblasts (AID 2010); assay type: functional;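 note: cells exposed to compound for about 90 hours before reading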
Nonstructural protein 1 = Nonstructural protein 1 (Influenza A virus, UniProt Q194T2); assay type: functional, Influenza A virus (A/California/07/2009(H1N1))
Nonstructural protein 1, sequence (Q194T2 whole entry): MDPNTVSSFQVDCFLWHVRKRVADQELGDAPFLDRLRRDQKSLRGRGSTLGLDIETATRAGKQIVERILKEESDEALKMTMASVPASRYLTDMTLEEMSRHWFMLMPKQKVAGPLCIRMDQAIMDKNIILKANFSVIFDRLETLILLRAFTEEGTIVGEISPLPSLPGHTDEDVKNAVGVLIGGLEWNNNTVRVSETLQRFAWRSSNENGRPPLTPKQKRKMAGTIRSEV

[8] = target: T2, DNA repair protein RAD52 homolog (Homo sapiens, UniProt P43351); assay type: functional, biochemical
T2 sequence (P43351 whole entry): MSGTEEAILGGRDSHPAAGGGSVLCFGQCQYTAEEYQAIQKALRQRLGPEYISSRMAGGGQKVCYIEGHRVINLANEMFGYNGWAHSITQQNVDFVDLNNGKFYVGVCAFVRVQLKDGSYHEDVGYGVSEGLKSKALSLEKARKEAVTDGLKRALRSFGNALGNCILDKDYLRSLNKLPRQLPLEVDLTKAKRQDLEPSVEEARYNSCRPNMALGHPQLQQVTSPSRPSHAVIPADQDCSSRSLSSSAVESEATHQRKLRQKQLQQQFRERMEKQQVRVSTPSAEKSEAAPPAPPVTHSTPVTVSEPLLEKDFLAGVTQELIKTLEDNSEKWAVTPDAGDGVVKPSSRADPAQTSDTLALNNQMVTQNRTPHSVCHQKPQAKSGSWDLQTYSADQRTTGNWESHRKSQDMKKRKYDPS

[9] = HEp-2 cell cytotoxicity, dose response, cytotoxicity control for RSV inhibitor project, HTS (AID 2410); assay type: functional; conditions: human respiratory syncytial virus
[10] = A cytotoxicity screen of small molecule inhibitors of the PhoP region in Salmonella typhi identified in the primary screen. [Related pubchem assays: 1850, 1864, 1985 ]; assay type: functional
cells [11] = assay: cells
Troponin, cardiac muscle = Troponin, cardiac muscle (Homo sapiens, UniProt P19429+P45379+P63316); assay: Fluorescence-based biochemical high throughput dose response assay for activators of the calcium sensitivity of cardiac Regulated Thin Filaments (RTF). [Related pubchem assays (depositor defined):AID493008, AID493018, AID504382, AID504383]; assay type: protein-complex assay
[12] = microbe, parasite or virus in culture; assay type: functional; conditions: Mycobacterium tuberculosis
[13] = growth suppression of PTEN-null colon cells, dose response, cell-based, HCT116 PTEN knockout (AID 1047); assay type: functional;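 note: HCT116 colon tumor cells with PTEN knocked out; cells exposed to compound for 60 hours before readout; potency for loss of cell viability measured by luminescence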
[14] = growth suppression of beta-catenin-knockout colon cells, dose response, cell-based, HCT116, human colon tumor (AID 1045); assay type: functional;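 note: HCT116 colon tumor cells with beta catenin knocked out; cells exposed to compound for 60 hours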
[15] = THP-1 cell cytotoxicity, dose response, cytotoxicity control for non-replicating M. tuberculosis project (AID 489025); assay type: functional
[16] = Luminescence Cell-Based Dose Retest to Confirm Inhibitors of Cancer Stem Cells. [Related pubchem assays (depositor defined):AID2717, AID2721]; assay type: functional; conditions: Homo sapiens
[17] = HepG2 cell cytotoxicity, dose response, cytotoxicity control for non-replicating M. tuberculosis project (AID 489018); assay type: functional; conditions: Mycobacterium tuberculosis
[18] = Vero E6 cell cytotoxicity, dose response, cytotoxicity control for non-replicating M. tuberculosis project, secondary assay (AID 492998); assay type: functional, VeroE6; conditions: Vero C1008
cells [19] = assay type: functional
Cytochrome P450 3A4 = Cytochrome P450 3A4 (Homo sapiens, UniProt P08684); conditions: Potency;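 note: confirmatory qHTS run detecting inhibitors and substrates of CYP3A4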
Cytochrome P450 3A4, sequence (P08684 whole entry): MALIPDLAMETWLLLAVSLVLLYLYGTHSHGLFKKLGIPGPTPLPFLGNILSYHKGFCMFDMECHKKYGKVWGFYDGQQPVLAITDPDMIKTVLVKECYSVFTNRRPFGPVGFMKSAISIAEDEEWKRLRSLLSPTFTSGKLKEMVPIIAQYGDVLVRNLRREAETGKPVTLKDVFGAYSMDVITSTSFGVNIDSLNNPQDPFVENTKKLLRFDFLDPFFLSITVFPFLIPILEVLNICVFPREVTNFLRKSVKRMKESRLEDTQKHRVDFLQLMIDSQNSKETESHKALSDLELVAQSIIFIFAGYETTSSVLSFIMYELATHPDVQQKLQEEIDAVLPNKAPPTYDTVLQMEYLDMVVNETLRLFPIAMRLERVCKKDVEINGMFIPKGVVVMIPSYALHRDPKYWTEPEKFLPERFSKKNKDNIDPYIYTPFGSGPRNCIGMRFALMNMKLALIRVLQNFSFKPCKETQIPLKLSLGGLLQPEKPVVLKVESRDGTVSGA

Large T antigen = Large T antigen (Simian virus 40, UniProt P03070); assay type: functional, Betapolyomavirus macacae;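 note: Confirmatory-stage PubChem screen for compounds that inhibit SV40 T antigen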
Large T antigen, sequence (P03070 whole entry, the tested form may be a part): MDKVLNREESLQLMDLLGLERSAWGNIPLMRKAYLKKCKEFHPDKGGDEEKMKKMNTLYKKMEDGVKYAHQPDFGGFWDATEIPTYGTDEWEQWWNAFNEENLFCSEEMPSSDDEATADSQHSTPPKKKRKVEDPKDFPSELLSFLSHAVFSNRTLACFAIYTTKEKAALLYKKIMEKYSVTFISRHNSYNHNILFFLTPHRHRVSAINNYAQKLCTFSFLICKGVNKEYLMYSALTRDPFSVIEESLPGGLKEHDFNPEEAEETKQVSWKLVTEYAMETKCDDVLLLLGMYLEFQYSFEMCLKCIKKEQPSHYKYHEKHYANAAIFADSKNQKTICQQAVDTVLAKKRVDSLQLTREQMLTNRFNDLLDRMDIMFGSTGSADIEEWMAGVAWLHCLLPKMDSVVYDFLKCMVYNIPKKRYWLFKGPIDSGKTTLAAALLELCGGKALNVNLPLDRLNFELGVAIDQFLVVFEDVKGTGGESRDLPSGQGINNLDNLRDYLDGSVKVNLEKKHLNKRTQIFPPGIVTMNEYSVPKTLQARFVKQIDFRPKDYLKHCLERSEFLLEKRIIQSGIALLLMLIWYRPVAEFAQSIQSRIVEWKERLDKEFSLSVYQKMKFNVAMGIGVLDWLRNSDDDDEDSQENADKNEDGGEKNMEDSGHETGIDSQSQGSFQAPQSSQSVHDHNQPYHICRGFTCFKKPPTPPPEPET

[20] = target: T3, RNA-binding protein pos-1 (Caenorhabditis elegans, UniProt G5EF15); assay: inhibitors of POS-1/mex-3 RNA binding, dose response, biochemical, fluorescence polarization (AID 1964);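 note: purified POS-1 fused to maltose binding protein made in E. coli; potency of compounds blocking POS-1 binding to fluorescent RNA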
T3 sequence (G5EF15 whole entry): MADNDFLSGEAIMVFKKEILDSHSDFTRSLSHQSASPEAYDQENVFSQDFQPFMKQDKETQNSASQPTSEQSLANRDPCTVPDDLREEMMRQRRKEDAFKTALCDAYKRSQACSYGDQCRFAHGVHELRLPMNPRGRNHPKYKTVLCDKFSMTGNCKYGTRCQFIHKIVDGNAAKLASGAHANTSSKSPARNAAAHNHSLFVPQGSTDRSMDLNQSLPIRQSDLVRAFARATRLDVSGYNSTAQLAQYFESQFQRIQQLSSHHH

[21] = target: T4, Zinc finger protein mex-5 (Caenorhabditis elegans, UniProt Q9XUB2); assay: MEX-5/TCR-2 RNA interaction inhibitors, dose response, biochemical, C. elegans, fluorescence polarization (AID 1960)
T4 sequence (Q9XUB2 whole entry): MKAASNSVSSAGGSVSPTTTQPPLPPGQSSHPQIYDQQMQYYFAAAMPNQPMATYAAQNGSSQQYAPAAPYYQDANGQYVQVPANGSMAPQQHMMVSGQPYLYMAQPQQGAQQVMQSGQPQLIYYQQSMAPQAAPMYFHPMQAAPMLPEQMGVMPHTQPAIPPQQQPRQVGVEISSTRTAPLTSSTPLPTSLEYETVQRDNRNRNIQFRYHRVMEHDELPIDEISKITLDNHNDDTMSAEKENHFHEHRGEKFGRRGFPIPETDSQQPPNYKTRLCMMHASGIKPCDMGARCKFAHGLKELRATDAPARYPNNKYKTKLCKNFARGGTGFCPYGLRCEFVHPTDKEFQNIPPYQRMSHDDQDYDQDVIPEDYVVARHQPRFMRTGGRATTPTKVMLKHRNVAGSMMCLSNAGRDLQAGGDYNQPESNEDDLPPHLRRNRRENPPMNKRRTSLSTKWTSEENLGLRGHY

[22] = target: T5, Carboxy-terminal domain RNA polymerase II polypeptide A small phosphatase 1 (Homo sapiens, UniProt Q9GZU7); assay: inhibitors of CTDSP1, concentration-response testing, biochemical assay, absorbance-based, actives from ultra-high-throughput screening (AID 540297); assay type: functional
T5 sequence (Q9GZU7 whole entry): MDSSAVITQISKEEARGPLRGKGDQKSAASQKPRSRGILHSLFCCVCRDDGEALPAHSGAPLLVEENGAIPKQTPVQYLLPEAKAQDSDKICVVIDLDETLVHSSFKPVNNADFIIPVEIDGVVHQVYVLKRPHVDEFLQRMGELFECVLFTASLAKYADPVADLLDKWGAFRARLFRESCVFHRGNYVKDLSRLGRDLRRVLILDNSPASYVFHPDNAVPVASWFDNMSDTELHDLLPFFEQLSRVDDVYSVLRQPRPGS

[23] = P. falciparum Dd2 growth inhibitors, dose response, SYBR Green, cherry-picked samples (AID 1159567); assay type: functional, cell-based
[24] = HepG2 cell cytotoxicity, dose response, cytotoxicity control, cherry-picked samples (AID 1159577); assay type: functional, cell-based

CCCOc1cc(NCc2ccccc2)c2ncn(C(C)C)c2c1
IC50 [1]: 5.67 µM (active)
AC50 (INS1): 8.46 µM (active)

Cc1sc(NC(=O)c2sc3nc4c(C)cccc4cc3c2N)c(C#N)c1C
IC50 [2]: 1.44 µM (active)

COCc1cc(CN2CCCC2)c(O)c2ncccc12
EC50 [3]: 11.4 µM (active)
EC50 [4]: 6.21 µM (active)
EC50 [5]: 8.4 µM (active)
EC50 [6]: 3.07 µM (active)
EC50 [7]: 4.17 µM (active)
IC50 (Nonstructural protein 1): 2.31 µM (active)

COc1cccc(OCC(O)CN2CCC(CN3C(=O)c4cccc5cccc(c45)C3=O)CC2)c1 (stereo unspecified)
EC50 [6]: 2.83 µM (active)
EC50 [7]: 9.64 µM (active)
AC50 [8]: 10.6 µM (active)

COC(=O)C1=C(C)N(Cc2ccco2)C(=O)N[C@H]1c1ccc(Br)cc1
CC50 [9]: 42.9 µM (active)
EC50 [10]: > 50 µM (active)
IC50 (cells [11]): 3.12 µM (active)

O=C(Nc1ccc(Cl)c(Cl)c1)Nc1ccc([N+](=O)[O-])cn1
EC50 (Troponin, cardiac muscle): > 71.5 µM (inactive)

OC(CN1CCCC1)Cn1ccc2ccccc21 (stereo unspecified)
AC50 [8]: 16.1 µM (active)

c1cc2c3c(cccc3c1)NC1(CCC3(CC1)Nc1cccc4cccc(c14)N3)N2
CC50 [12]: 20 µM (active)
IC50 [1]: 7.06 µM (active)

COc1cc(CNC(C)(C)CO)cc(Br)c1OCc1ccc(Cl)cc1Cl
EC50 [13]: 7.38 µM (active)
EC50 [14]: 7.94 µM (active)
CC50 [15]: 19.4 µM (active)
AC50 [16]: 5.33 µM (active)
CC50 [17]: 12.5 µM (active)
CC50 [18]: 13.8 µM (active)
IC50 (cells [19]): 16.7 µM (active)
AC50 [8]: 18.5 µM (active)

N#CC(Cl)Cl
AC50 (Cytochrome P450 3A4): 31.6 µM (inconclusive)

CC(C)CCC(C)N/C=C1/C(=O)N(Cc2ccccc2)C(=O)c2ccccc21 (stereo unspecified)
IC50 [1]: 7.34 µM (active)

CCOc1ccc(NCc2cccn2-c2nnc(N3CCC(C(=O)NCCCN4CCCCC4C)CC3)s2)cc1 (stereo unspecified)
IC50 (Large T antigen): 19.5 µM (active)
AC50 [8]: 19.6 µM (active)

COC(=O)CNC(=O)C1(C)C=CC2(CCCCC2)N1C(=O)OC (stereo unspecified)
AC50 (Cytochrome P450 3A4): 31.6 µM (inconclusive)

CN1C[C@@H](CO)C=C2c3cccc4[nH]cc(c34)CC21 (stereo partly specified)
AC50 (Cytochrome P450 3A4): 31.6 µM (inconclusive)

O=[N+]([O-])c1cccc(NNS(=O)(=O)c2ccccc2F)c1
EC50 [10]: > 50 µM (active)

COc1cc(CNCCCN2CCOCC2)c(Br)cc1OCC(=O)Nc1ccccc1C
EC50 [10]: > 50 µM (active)

CC1CCN(C2=C(NS(=O)(=O)c3ccccc3)C(=O)c3ccccc3C2=O)CC1
IC50 (Nonstructural protein 1): 11.3 µM (active)

Cc1ccc(/C=C2\Oc3c(ccc(O)c3CN3CCN(CCO)CC3)C2=O)cc1
EC50 [20]: 36 µM (active)
EC50 [21]: 73.9 µM (active)
EC50 (Troponin, cardiac muscle): 19.5 µM (inactive)

CCOC(=O)N1CCC(=NNc2ccnc3cc(Cl)ccc23)CC1
EC50 [10]: > 50 µM (active)

CCCCCCC1=Cc2cc(OC)c(OC)cc2C(CC(=O)/C=C/OC)O1 (stereo unspecified)
AC50 (Cytochrome P450 3A4): 5.01 µM (inconclusive)

Cc1ccc(NC(=O)COc2ccc(/C=N/NC(=O)CSCc3ccccc3)cc2)cc1
EC50 (Troponin, cardiac muscle): > 71.5 µM (inactive)
IC50 [22]: 9.82 µM (active)

Oc1ccc(N=Nc2cccc(Cl)c2)cc1/C=N/c1ccc(N2CCOCC2)cc1
IC50 [2]: 5.14 µM (not active)

Clc1cccc(/C=N\Nc2nccs2)c1
EC50 [10]: > 50 µM (active)
IC50 (cells [19]): 12.7 µM (active)

C[C@@H]1CN([C@@H](C)CO)C(=O)Cc2cc(NC(=O)Nc3ccccc3)ccc2O[C@H]1CN(C)Cc1ccc(-c2ccccc2)cc1
AC50 [23]: 1.87 µM (active)
AC50 [24]: 18.5 µM (active)

C[C@H]1CN([C@@H](C)CO)S(=O)(=O)c2ccc(C#Cc3ccc(F)cc3)cc2O[C@@H]1CN(C)C(=O)NC1CCCC1
AC50 [23]: 6.21 µM (active)
AC50 [24]: 25.6 µM (active)

COc1ccc(-c2oc3ccccc3c(=O)c2O)cc1
AC50 (Cytochrome P450 3A4): 3.98 µM (inconclusive)
